# Positions of bridges follow the written chain, without caps; N, C: chain ends. No end group written: not given here.
# How the values were obtained:
# Type in all cases: cell-based
# IFN signaling pathway = IFN signaling pathway (SEAP) in Jurkart-Dual reporter cells, peptide pre-treatment then IFN-α; settings: peptide 1 hour, then IFN-α (104 EU/ml); 10 μM; 12 hours
# Method: Therefore, we cannot confirm whether they were able to affect the activation pathway (FIGS. 6A, B, and C) in the same or better way than the negative control (rIL-10). In the assays shown in FIGS. 5 (A, B, and C) and 6 (A, B, and C), IFN expression was analyzed in Jurkart-Dual reporter cells. In the assays shown in FIGS. 5 A, B, and C, cells were treated with peptides for 1 hour followed by the addition of IFN-α (104 EU/ml). Secreted Embryonic Alkaline Phosphatase (SEAP) production was measured after 12 hours of treatment (FIG. 5A), 24 hours of treatment (FIG. 5B), and 48 hours of treatment (FIG. 5C). In the assays shown in FIGS. 6 A, B, and C, cells were treated with IFN-α (104 EU/ml) for 1 hour, and then peptides were added. SEAP production was measured after (D) 12 hours of treatment (E) 24 hours of treatment, and (F) 48 hours of treatment. IFN-α (104 EU/mL) was used as a positive control and rIL-10 (0.4 ng/mL) as a negative control. * P<0.05.
# TLR4 signaling pathway = TLR4 signaling pathway (SEAP) in HEK cells, LPS pre-treatment then peptides; settings: LPS then peptide, 12 hours
# Method: HEK cells were used to investigate the ability of the peptides to reduce activation of the TLR4 signaling pathway after 12 hours of treatment.
# In the assay shown in FIG. 7A, the cells were treated with peptides for 1 hour, then LPS (100 ng/ml) was added. SEAP production was measured after 12 hours of treatment. In the assay shown in FIG. 7B, the cells were treated with LPS (100 ng/ml) for 1 hour, then the peptides were added. SEAP production was measured after 12 hours of treatment. LPS (100 ng/mL) was used as positive control and IL-10 (0.4 ng/mL) as negative control. * P<0.05; ** P<0.005; *** P<0.0005.
# [1] = test system: Dendritic cells from mice bone marrow; assay: Co-stimulatory molecules on bone marrow dendritic cells; settings: CD11c+ dendritic cells, 24 hours
# Method: Dendritic cells from mice bone marrow were isolated to analyze the effect of synthesized peptides Pep 1, Pep 2, Pep 3, and Pep 4 at two concentrations, 1 μM, and 10 μM, on reducing cell activation. […] In the assays, CD11c+CD86 cells (FIG. 8A) and CD11c+CD40+ cells (FIG. 8B) were used after 24 hours of treatment. LPS (100 ng/mL) was used as a positive control. * P<0.05; ** P<0.005.
substance,measurement,setting,value
"Pep 1: synthetic peptide with affinity to the Interleukin-10 receptor, SEQ ID No 01, with disulfide bridges (HACSAVIKSSCGGGS; disulfide 3-11 (inferred))",activation of the IFN signaling pathway,IFN signaling pathway,activation of the pathway was reduced
same,activation of the TLR4 pathway,TLR4 signaling pathway; 0.001 μM,activation of the TLR4 pathway was more significantly reduced
same,activation of the TLR4 pathway,TLR4 signaling pathway; 0.005 μM,activation of the TLR4 pathway was more significantly reduced
same,activation of the TLR4 pathway,TLR4 signaling pathway; 0.01 μM,activation of the TLR4 pathway was more significantly reduced
same,activation of the TLR4 pathway,TLR4 signaling pathway; 0.05 μM,activation of the TLR4 pathway was more significantly reduced
same,activation of the TLR4 pathway,TLR4 signaling pathway; 0.1 μM,activation of the TLR4 pathway was more significantly reduced
same,expression of CD86+,[1]; 1 μM,decreased the expression of CD86+
same,expression of CD86+,[1]; 10 μM,decreased the expression of CD86+

# From patent US20220204577A1, “Synthetic Peptides With Affinity for the Interleukin-10 Receptor, Pharmaceutical Composition and Use Thereof as Immunomodulators for Treating Autoimmune, Inflammatory or Allergic Diseases” (Universidade Federal de Uberlândia, priority 2019, published 2022)
